From PubChem BioAssay AID1259407 (Chemical Carcinogenesis Research Information System (CCRIS), 2018)
Calls of active or inactive are those of the source. How the calls were made is not given here.

Test system: CCRIS mutagenicity, Ames/micronucleus/aberration tests
Assay: CCRIS mutagenicity studies
Description: The CCRIS database contains chemical records with carcinogenicity, mutagenicity, tumor promotion, and tumor inhibition test results. It was developed by the National Cancer Institute (NCI). Data are derived from studies cited in primary journals, current awareness tools, NCI reports, and other sources. Test results have been reviewed by experts in carcinogenesis and mutagenesis.
CCRIS provides historical information from the years 1985 - 2011. It is no longer updated.
This is an archive assay for CCRIS mutagenicity studies.

[1] = Test System: AMES SALMONELLA TYPHIMURIUM, Strain/Indicator: TA1535, Metabolic Activation: NONE, Method: STANDARD PLATE
[2] = Test System: AMES SALMONELLA TYPHIMURIUM, Strain/Indicator: TA98, Metabolic Activation: NONE, Method: PREINCUBATION
[3] = Test System: AMES SALMONELLA TYPHIMURIUM, Strain/Indicator: TA100, Metabolic Activation: NONE, Method: PREINCUBATION
[4] = Test System: AMES SALMONELLA TYPHIMURIUM, Strain/Indicator: TA100, Metabolic Activation: NONE, Method: STANDARD PLATE
[5] = Test System: AMES SALMONELLA TYPHIMURIUM, Strain/Indicator: TA98, Metabolic Activation: NONE, Method: STANDARD PLATE
[6] = Test System: AMES SALMONELLA TYPHIMURIUM, Strain/Indicator: TA1537, Metabolic Activation: NONE, Method: STANDARD PLATE
[7] = Test System: AMES SALMONELLA TYPHIMURIUM, Strain/Indicator: TA1538, Metabolic Activation: NONE, Method: STANDARD PLATE

For `CCOP(=S)(OCC)SCCSCC`, which mutagenic call (End Point: In vivo micronucleus, Test System: Micronucleated polychromatic erythrocytes, Species: Mouse, Strain/Sex: Hsd/Win: NMRI/Male and female, Route: Intraperitoneal) is on record?
Its mutagenic call is “active; positive at 24 and 48 hr compared with the concurrent control, but equivocal com”.

What about the mutagenic call [1] of the same molecule?
The mutagenic call was “active; positive”.

What about the mutagenic call (Test System: AMES SALMONELLA TYPHIMURIUM, Strain/Indicator: TA1535, Metabolic Activation: S-9 MIX, Method: STANDARD PLATE) of the same molecule?
Its mutagenic call is “active; positive”.

What about the mutagenic call (Test System: E. coli polA test, Strain/Indicator: (K12)p3478/W3110, Metabolic Activation: None, Method: Plate test with 24 hr exposure) of the same molecule?
Its mutagenic call is “inactive; negative”.

And the mutagenic call (Test System: E. coli polA test, Strain/Indicator: (K12)p3478/W3110, Metabolic Activation: S-9, Method: Plate test with 24 hr exposure)?
The mutagenic call was “inactive; negative”.

What about the mutagenic call (Test System: UDS HUMAN FIBROBLASTS, Strain/Indicator: THY INCORP (NON-S-PHASE), Metabolic Activation: NONE, Method: LIQUID SCINTILLATION COUNTING) of the same molecule?
Its mutagenic call is “active; positive”.

Which mutagenic call (Test System: AMES SALMONELLA TYPHIMURIUM, Strain/Indicator: TA97A, Metabolic Activation: NONE, Method: PREINCUBATION) does the source give for `O=C1C=Cc2c(ccc3ccccc23)C1=O` here?
Its mutagenic call is “inactive; negative”.

What about the mutagenic call [2] of the same molecule?
Its mutagenic call is “inactive; negative”.

What about the mutagenic call [3] of the same molecule?
The mutagenic call was “inactive; negative”.

And the mutagenic call (Test System: AMES SALMONELLA TYPHIMURIUM, Strain/Indicator: TA102, Metabolic Activation: NONE, Method: PREINCUBATION)?
Its mutagenic call is “inactive; negative”.

What about the mutagenic call (Test System: AMES SALMONELLA TYPHIMURIUM, Strain/Indicator: TA104, Metabolic Activation: NONE, Method: PREINCUBATION) of the same molecule?
The mutagenic call was “active; positive”.

`CC1(c2ccc(-c3ccccc3)cc2)CO1` (centres undefined) was tested. Which mutagenic call [3] did it give?
The mutagenic call was “active; positive”.

How did the mutagenic call (End Point: IN VITRO MICRONUCLEUS, Test System: CHINESE HAMSTER V-79-MZ, Metabolic Activation: NONE) turn out when `Cn1c2c3ccccc3nc-2cc2ccccc21` was run?
The mutagenic call was “active; positive”.

And the mutagenic call (Test System: CHINESE HAMSTER V-79-MZ, Strain/Indicator: V-79 MZ (HPRT)/6-THIOGUANINE, Metabolic Activation: NONE)?
Its mutagenic call is “inactive; negative”.

For `N[C@@H](CS/C(Cl)=C(\Cl)C(Cl)=C(Cl)Cl)C(=O)O`, which mutagenic call [3] is on record?
The mutagenic call was “active; positive”.

And the mutagenic call [4]?
The mutagenic call was “active; positive”.

And the mutagenic call (Test System: AMES SALMONELLA TYPHIMURIUM, Strain/Indicator: TA100, Metabolic Activation: RAT, KIDNEY, S-9, AROCLOR 1254, Method: STANDARD PLATE)?
The mutagenic call was “active; positive”.

And the mutagenic call (Test System: AMES SALMONELLA TYPHIMURIUM, Strain/Indicator: TA2638, Metabolic Activation: NONE, Method: PREINCUBATION)?
The mutagenic call was “active; positive”.

With `N[C@@H](CS)C(=O)OC(=O)NCCCl` as the molecule, how does the mutagenic call [1] read?
Its mutagenic call is “active; positive”.

What does the source list for `CC(C)OC(=O)COc1ccc(Cl)cc1Cl`?
mutagenic call [5]: inactive; negative; mutagenic call (Test System: AMES SALMONELLA TYPHIMURIUM, Strain/Indicator: TA98, Metabolic Activation: RAT LIVER S-9, AROCLOR 1254, 10%, Method: STANDARD PLATE): inactive; negative; mutagenic call [4]: inactive; negative; mutagenic call (Test System: AMES SALMONELLA TYPHIMURIUM, Strain/Indicator: TA100, Metabolic Activation: RAT LIVER S-9, AROCLOR 1254, 10%, Method: STANDARD PLATE): inactive; negative; mutagenic call [1]: inactive; negative; mutagenic call (Test System: AMES SALMONELLA TYPHIMURIUM, Strain/Indicator: TA1535, Metabolic Activation: RAT LIVER S-9, AROCLOR 1254, 10%, Method: STANDARD PLATE): inactive; negative; mutagenic call [6]: inactive; negative; mutagenic call (Test System: AMES SALMONELLA TYPHIMURIUM, Strain/Indicator: TA1537, Metabolic Activation: RAT LIVER S-9, AROCLOR 1254, 10%, Method: STANDARD PLATE): inactive; negative; mutagenic call [7]: inactive; negative; mutagenic call (Test System: AMES SALMONELLA TYPHIMURIUM, Strain/Indicator: TA1538, Metabolic Activation: RAT LIVER S-9, AROCLOR 1254, 10%, Method: STANDARD PLATE): inactive; negative; mutagenic call (Test System: UDS RAT HEPATOCYTES, Strain/Indicator: THYMIDINE INCORPORATION, Metabolic Activation: NONE, Method: AUTORADIOGRAPHY): inactive; negative

With `Clc1nc2ccccc2nc1Cl` as the molecule, how does the mutagenic call (Test System: AMES SALMONELLA TYPHIMURIUM, Strain/Indicator: TA98, Metabolic Activation: HAMSTER, LIVER, S-9, AROCLOR 1254 (10%), Method: PREINCUBATION) read?
Its mutagenic call is “inactive; negative”.

What about the mutagenic call (Test System: AMES SALMONELLA TYPHIMURIUM, Strain/Indicator: TA98, Metabolic Activation: HAMSTER, LIVER, S-9, AROCLOR 1254, Method: STANDARD PLATE) of the same molecule?
The mutagenic call was “inactive; negative”.

What about the mutagenic call [2] of the same molecule?
Its mutagenic call is “inactive; negative”.

And the mutagenic call [5]?
Its mutagenic call is “inactive; negative”.

What about the mutagenic call (Test System: AMES SALMONELLA TYPHIMURIUM, Strain/Indicator: TA98, Metabolic Activation: RAT, LIVER, S-9, AROCLOR 1254 (10%), Method: PREINCUBATION) of the same molecule?
The mutagenic call was “inactive; negative”.

And the mutagenic call (Test System: AMES SALMONELLA TYPHIMURIUM, Strain/Indicator: TA98, Metabolic Activation: RAT, LIVER, S-9, AROCLOR 1254, Method: STANDARD PLATE)?
The mutagenic call was “inactive; negative”.

What about the mutagenic call (Test System: AMES SALMONELLA TYPHIMURIUM, Strain/Indicator: TA100, Metabolic Activation: HAMSTER, LIVER, S-9, AROCLOR 1254 (10%), Method: PREINCUBATION) of the same molecule?
Its mutagenic call is “inactive; negative”.

What about the mutagenic call (Test System: AMES SALMONELLA TYPHIMURIUM, Strain/Indicator: TA100, Metabolic Activation: HAMSTER, LIVER, S-9, AROCLOR 1254, Method: STANDARD PLATE) of the same molecule?
The mutagenic call was “inactive; negative”.

What about the mutagenic call [3] of the same molecule?
The mutagenic call was “inactive; negative”.

What about the mutagenic call [4] of the same molecule?
The mutagenic call was “inactive; negative”.

What about the mutagenic call (Test System: AMES SALMONELLA TYPHIMURIUM, Strain/Indicator: TA100, Metabolic Activation: RAT, LIVER, S-9, AROCLOR 1254 (10%), Method: PREINCUBATION) of the same molecule?
Its mutagenic call is “inactive; negative”.

And the mutagenic call (Test System: AMES SALMONELLA TYPHIMURIUM, Strain/Indicator: TA100, Metabolic Activation: RAT, LIVER, S-9, AROCLOR 1254, Method: STANDARD PLATE)?
The mutagenic call was “inactive; negative”.

And the mutagenic call (Test System: AMES SALMONELLA TYPHIMURIUM, Strain/Indicator: TA1535, Metabolic Activation: HAMSTER, LIVER, S-9, AROCLOR 1254 (10%), Method: PREINCUBATION)?
The mutagenic call was “inactive; negative”.

And the mutagenic call (Test System: AMES SALMONELLA TYPHIMURIUM, Strain/Indicator: TA1535, Metabolic Activation: HAMSTER, LIVER, S-9, AROCLOR 1254, Method: STANDARD PLATE)?
The mutagenic call was “inactive; negative”.

What about the mutagenic call (Test System: AMES SALMONELLA TYPHIMURIUM, Strain/Indicator: TA1535, Metabolic Activation: NONE, Method: PREINCUBATION) of the same molecule?
Its mutagenic call is “inactive; negative”.

What about the mutagenic call [1] of the same molecule?
The mutagenic call was “inactive; negative”.

And the mutagenic call (Test System: AMES SALMONELLA TYPHIMURIUM, Strain/Indicator: TA1535, Metabolic Activation: RAT, LIVER, S-9, AROCLOR 1254 (10%), Method: PREINCUBATION)?
Its mutagenic call is “inactive; negative”.

And the mutagenic call (Test System: AMES SALMONELLA TYPHIMURIUM, Strain/Indicator: TA1535, Metabolic Activation: RAT, LIVER, S-9, AROCLOR 1254, Method: STANDARD PLATE)?
The mutagenic call was “inactive; negative”.

And the mutagenic call (Test System: AMES SALMONELLA TYPHIMURIUM, Strain/Indicator: TA1537, Metabolic Activation: HAMSTER, LIVER, S-9, AROCLOR 1254 (10%), Method: PREINCUBATION)?
The mutagenic call was “inactive; negative”.

What about the mutagenic call (Test System: AMES SALMONELLA TYPHIMURIUM, Strain/Indicator: TA1537, Metabolic Activation: HAMSTER, LIVER, S-9, AROCLOR 1254, Method: STANDARD PLATE) of the same molecule?
The mutagenic call was “inactive; negative”.

What about the mutagenic call (Test System: AMES SALMONELLA TYPHIMURIUM, Strain/Indicator: TA1537, Metabolic Activation: NONE, Method: PREINCUBATION) of the same molecule?
Its mutagenic call is “inactive; negative”.

And the mutagenic call [6]?
Its mutagenic call is “inactive; negative”.

And the mutagenic call (Test System: AMES SALMONELLA TYPHIMURIUM, Strain/Indicator: TA1537, Metabolic Activation: RAT, LIVER, S-9, AROCLOR 1254 (10%), Method: PREINCUBATION)?
The mutagenic call was “inactive; negative”.

And the mutagenic call (Test System: AMES SALMONELLA TYPHIMURIUM, Strain/Indicator: TA1537, Metabolic Activation: RAT, LIVER, S-9, AROCLOR 1254, Method: STANDARD PLATE)?
Its mutagenic call is “inactive; negative”.

What about the mutagenic call (Test System: AMES SALMONELLA TYPHIMURIUM, Strain/Indicator: TA1538, Metabolic Activation: HAMSTER, LIVER, S-9, AROCLOR 1254, Method: STANDARD PLATE) of the same molecule?
Its mutagenic call is “inactive; negative”.

What about the mutagenic call [7] of the same molecule?
The mutagenic call was “inactive; negative”.

What about the mutagenic call (Test System: AMES SALMONELLA TYPHIMURIUM, Strain/Indicator: TA1538, Metabolic Activation: RAT, LIVER, S-9, AROCLOR 1254, Method: STANDARD PLATE) of the same molecule?
The mutagenic call was “inactive; negative”.

What about the mutagenic call (Test System: MOUSE LYMPHOMA, Strain/Indicator: L5178Y (TK+/TK-), Metabolic Activation: NONE, Method: SUSPENSION/PLATE) of the same molecule?
Its mutagenic call is “active; positive. reevaluation of results: equivocal”.

What about the mutagenic call (Test System: MOUSE LYMPHOMA, Strain/Indicator: L5178Y (TK+/TK-), Metabolic Activation: RAT, LIVER, S-9, AROCLOR 1254, Method: SUSPENSION/PLATE) of the same molecule?
Its mutagenic call is “active; positive. reevaluation of results: positive”.
